Measurements from US12349673B2, “Emulsifiable concentrates” (priority 2018, dated 2025).

Legend:
Type in all cases: physicochemical
[1] = Method A: solubility of active ingredient in solvent by NMR spectroscopy of a saturated solution; conditions: for Active Ingredient Solubility: Dicamba Acid: dicamba acid dissolved in the named solvent; for Active Ingredient Solubility: Nitrapyrin: nitrapyrin dissolved in the named solvent; for Active Ingredient Solubility: 2,4-D Acid: 2,4-dichlorophenoxyacetic acid dissolved in the named solvent; for Active Ingredient Solubility: MCPA: 2-methyl-4-chlorophenoxyacetic acid dissolved in the named solvent; for Active Ingredient Solubility: NBPT: N-(n-butyl)thiophosphoric triamide dissolved in the named solvent; for Active Ingredient Solubility: Bifenthrin: bifenthrin dissolved in the named solvent; for Active Ingredient Solubility: Tebuconazole: tebuconazole dissolved in the named solvent
Method: (§1) The solubilities of active ingredients in the Ether Ketone Solvents and Comparative Solvents are determined on a saturated solution of a given active ingredient in a given solvent using NMR spectroscopy (Method A, as described below), or by visual evaluation of a concentration ladder of a given active ingredient in a given solvent (Method B, as described below).
Method A: Solubility Determination by NMR Spectroscopy
A saturated solution of a given active ingredient in a solvent is prepared by initially combining the active ingredient (0.8 g) and solvent (1.5 mL) in a vial and stirring vigorously for at least 24 hours. If a homogeneous solution is obtained, additional active ingredient is added until a significant amount of solid remains out of solution. The mixtures (˜0.25 mL) are then filtered with a PTFE syringe filter (0.45 μm) into an NMR tube that contained C6D6 (0.5 mL). The NMR tubes are capped and analyzed on Varian 400 NMR spectrometer equipped with an auto sampler. Proton NMR spectra are referenced to the residual proton peak in the deuterated solvent. Spectra used for quantitation are collected with a 180 second delay between pulses. Spectra are processed in MestReNova (version 11.0.4-18998) by baseline (Bernstein Polynomials) and phase correcting each spectrum followed by integration of all well-resolved solvent and active resonances. Active ingredient weight percentages are estimated by the following formula:
(§2) [formula] When possible, several well-resolved peaks are used for both solvent and active ingredient, and averaged to provide an estimation of variability in the measurement. Method B: Solubility Determination by Visual Evaluation

[2] = Method B: solubility of active ingredient in solvent by visual evaluation of a concentration ladder; conditions: Method B (visual, 24 hours, 21° C.); for Active Ingredient Solubility: 2,4-D Acid: 2,4-dichlorophenoxyacetic acid dissolved in the named solvent; for Active Ingredient Solubility: MCPA: 2-methyl-4-chlorophenoxyacetic acid dissolved in the named solvent; for Active Ingredient Solubility: NBPT: N-(n-butyl)thiophosphoric triamide dissolved in the named solvent; for Active Ingredient Solubility: Bifenthrin: bifenthrin dissolved in the named solvent; for Active Ingredient Solubility: Tebuconazole: tebuconazole dissolved in the named solvent
Method: as §1, §2
Four-milliliter (mL) vials are charged with active ingredient (10 to 50 wt %), a stir bar, and solvent (90 to 50 wt %). The vials are capped and taped to seal. The vials are secured in a vial rack and shaken on a laboratory shaker for 24 hours at ambient lab temperature of 21° C. and 51% humidity. After 24 hours each sample set is evaluated for solubility of solid.

[3] = Solubility of Ether Ketone Solvent in water (dropwise addition, weighing); conditions: lab temperature 30° C.
Method: The solubilities of certain of the Ether Ketone Solvents in water are determined by adding water (˜10 to 50 grams) to a tared vial equipped with a stir bar. The weights of water are noted. The specified solvent is added dropwise using a 10 μL syringe until the mixture appeared to have solvent droplets suspended in the water. The mixture is weighed again and the weight percent solubility of the Ether Ketone Solvent in water is calculated.
(§3) The solubilities of water in certain of the Ether Ketone Solvents are also evaluated. A vial is charged with 5 grams of the specified solvent, and 3 Å activated molecular sieves (˜300 mg) are added. The vial is capped and the solvent left to dry for several days. The mixtures are filtered using a 0.2 μm syringe filter into a tared 20 mL vial and the weights are noted. Water is then added using a 10 μL syringe until the mixture appeared to have water droplets on the bottom of the vial. The mixture is weighed again and the weight percent solubility of water in the Ether Ketone solvent is calculated. The temperature in the lab is 30° C. at the time of the water solubility measurements.

[4] = Solubility of water in Ether Ketone Solvent (dropwise addition, weighing); conditions: water in dried solvent; lab temperature 30° C.
Method: as §3

O=C1CCCCC1 [Cyclohexanone]
Active Ingredient Solubility: Dicamba Acid [1]: 62.4 wt % | Active Ingredient Solubility: Nitrapyrin [1]: 65.2 wt % | Active Ingredient Solubility: 2,4-D Acid [2]: <40 wt % | Active Ingredient Solubility: MCPA [2]: <50 wt % | Active Ingredient Solubility: NBPT [2]: <50 wt % | Active Ingredient Solubility: Bifenthrin [2]: Sol. at 50 wt % | Active Ingredient Solubility: Tebuconazole [2]: <50 wt %

CCCCCCCCOCC(C)=O [PnO Ketone, 1-Octyloxy-2-propanone]
Active Ingredient Solubility: 2,4-D Acid [1]: 12.6 wt % | Active Ingredient Solubility: MCPA [1]: 17.1 wt % | Active Ingredient Solubility: NBPT [1]: 15.9 wt % | Active Ingredient Solubility: Bifenthrin [1]: 35.4 wt % | Active Ingredient Solubility: Dicamba Acid [1]: 40.6 wt % | Active Ingredient Solubility: Nitrapyrin [1]: 42.9 wt % | Active Ingredient Solubility: Tebuconazole [1]: 12.5 wt %

CCCCOCC(=O)CC [BnB Ketone, 1-Butoxy-2-butanone]
Active Ingredient Solubility: 2,4-D Acid [1]: 15.6 wt % | Active Ingredient Solubility: MCPA [1]: 21.6 wt % | Active Ingredient Solubility: NBPT [1]: 21.0 wt % | Active Ingredient Solubility: Bifenthrin [1]: 42.6 wt % | Active Ingredient Solubility: Dicamba Acid [1]: 48.9 wt % | Active Ingredient Solubility: Nitrapyrin [1]: 55.0 wt % | Active Ingredient Solubility: Tebuconazole [1]: 16.9 wt % | Solubility In Water [3]: 0.43 wt % | Solubility Water In [4]: 0.11 wt %

CCCCCCCCOCC(=O)CC [BnO Ketone, 1-Octyloxy-2-butanone]
Active Ingredient Solubility: 2,4-D Acid [1]: 10.2 wt % | Active Ingredient Solubility: MCPA [1]: 15.3 wt % | Active Ingredient Solubility: NBPT [1]: 10.0 wt % | Active Ingredient Solubility: Bifenthrin [1]: 33.9 wt % | Active Ingredient Solubility: Dicamba Acid [1]: 36.5 wt % | Active Ingredient Solubility: Nitrapyrin [1]: 41.6 wt % | Active Ingredient Solubility: Tebuconazole [1]: 12.0 wt %

CCCCOCC(C)OCC(C)=O (stereo not drawn) [DPnB Ketone, 1-((1-(Butoxy)-2-propanyl)oxy)-2-propanone]
Active Ingredient Solubility: 2,4-D Acid [1]: 18.3 wt % | Active Ingredient Solubility: MCPA [1]: 23.7 wt % | Active Ingredient Solubility: NBPT [1]: 25.5 wt % | Active Ingredient Solubility: Bifenthrin [1]: 33.4 wt % | Active Ingredient Solubility: Dicamba Acid [1]: 52.7 wt % | Active Ingredient Solubility: Nitrapyrin [1]: 45.4 wt % | Active Ingredient Solubility: Tebuconazole [1]: 15.0 wt % | Solubility In Water [3]: 0.20 wt % | Solubility Water In [4]: 0.03 wt %

CCCCCCOCC(=O)CC [BnH Ketone, 1-Hexyloxy-2-butanone]
Active Ingredient Solubility: 2,4-D Acid [1]: 12.8 wt % | Active Ingredient Solubility: MCPA [1]: 17.5 wt % | Active Ingredient Solubility: NBPT [1]: 13.6 wt % | Active Ingredient Solubility: Bifenthrin [1]: 37.3 wt % | Active Ingredient Solubility: Dicamba Acid [1]: 42.5 wt % | Active Ingredient Solubility: Nitrapyrin [1]: 46.2 wt % | Active Ingredient Solubility: Tebuconazole [1]: 13.5 wt % | Solubility In Water [3]: 0.22 wt % | Solubility Water In [4]: 0.02 wt %

CCCCOCC(C)OCC(C)OCC(C)=O (stereo not drawn) [TPnB Ketone, 1-((1-((1-Butoxy-2-propanyl)oxy)-2-propanyl)oxy)-2-propanone]
Active Ingredient Solubility: 2,4-D Acid [1]: 16.3 wt % | Active Ingredient Solubility: MCPA [1]: 22.5 wt % | Active Ingredient Solubility: NBPT [1]: 22.1 wt % | Active Ingredient Solubility: Bifenthrin [1]: 13.0 wt % | Active Ingredient Solubility: Dicamba Acid [1]: 49.7 wt % | Active Ingredient Solubility: Nitrapyrin [1]: 37.0 wt % | Active Ingredient Solubility: Tebuconazole [1]: 10.8 wt %

CCCCOCC(CC)OCC(=O)CC (stereo not drawn) [DBnB Ketone, 1-((1-Butoxy-2-butanyl)oxy)-2-butanone]
Active Ingredient Solubility: 2,4-D Acid [1]: 13.2 wt % | Active Ingredient Solubility: MCPA [1]: 17.1 wt % | Active Ingredient Solubility: NBPT [1]: 15.7 wt % | Active Ingredient Solubility: Bifenthrin [1]: 34.7 wt % | Active Ingredient Solubility: Dicamba Acid [1]: 45.6 wt % | Active Ingredient Solubility: Nitrapyrin [1]: 42.6 wt % | Active Ingredient Solubility: Tebuconazole [1]: 10.5 wt %

CCCCCCOCC(C)OCC(C)=O (stereo not drawn) [DPnH Ketone, 1-((1-(Hexyloxy)-2-propanyl)oxy)-2-propanone]
Active Ingredient Solubility: 2,4-D Acid [1]: 16.4 wt % | Active Ingredient Solubility: MCPA [1]: 22.1 wt % | Active Ingredient Solubility: NBPT [1]: 25.3 wt % | Active Ingredient Solubility: Bifenthrin [1]: 35.5 wt % | Active Ingredient Solubility: Dicamba Acid [1]: 48.4 wt % | Active Ingredient Solubility: Nitrapyrin [1]: 39.0 wt % | Active Ingredient Solubility: Tebuconazole [1]: 12.5 wt % | Solubility In Water [3]: 0.22 wt % | Solubility Water In [4]: 0.03 wt %

CCCCOCC(C)=O [PnB Ketone, 1-Butoxy-2-propanone]
Active Ingredient Solubility: 2,4-D Acid [1]: 20.2 wt % | Active Ingredient Solubility: MCPA [1]: 26.8 wt % | Active Ingredient Solubility: NBPT [1]: 32.8 wt % | Active Ingredient Solubility: Bifenthrin [1]: 43.3 wt % | Active Ingredient Solubility: Dicamba Acid [1]: 54.0 wt % | Active Ingredient Solubility: Nitrapyrin [1]: 53.4 wt % | Active Ingredient Solubility: Tebuconazole [1]: 25.1 wt % | Solubility In Water [3]: 0.20 wt % | Solubility Water In [4]: 0.005 wt %

CCCCCCOCC(CC)OCC(=O)CC (stereo not drawn) [DBnH Ketone, 1-((1-(Hexyloxy)-2-butanyl)oxy)-2-butanone]
Active Ingredient Solubility: 2,4-D Acid [1]: 10.9 wt % | Active Ingredient Solubility: MCPA [1]: 17.2 wt % | Active Ingredient Solubility: NBPT [1]: 10.5 wt % | Active Ingredient Solubility: Bifenthrin [1]: 33.8 wt % | Active Ingredient Solubility: Dicamba Acid [1]: 42.5 wt % | Active Ingredient Solubility: Nitrapyrin [1]: 39.8 wt % | Active Ingredient Solubility: Tebuconazole [1]: 11.2 wt %

CCCCCOCC(C)OCC(C)=O (stereo not drawn) [DPnPent Ketone, 1-((1-(Pentyloxy)-2-propanyl)oxy)-2-propanone]
Active Ingredient Solubility: 2,4-D Acid [1]: 15.0 wt % | Active Ingredient Solubility: MCPA [1]: 22.0 wt % | Active Ingredient Solubility: NBPT [1]: 24.4 wt % | Active Ingredient Solubility: Bifenthrin [1]: 31.8 wt % | Active Ingredient Solubility: Dicamba Acid [1]: 48.7 wt % | Active Ingredient Solubility: Nitrapyrin [1]: 41.8 wt % | Active Ingredient Solubility: Tebuconazole [1]: 12.0 wt %

CCCCCOCC(C)=O [PnPent Ketone, 1-Pentyloxy-2-propanone]
Active Ingredient Solubility: 2,4-D Acid [1]: 17.3 wt % | Active Ingredient Solubility: MCPA [1]: 22.9 wt % | Active Ingredient Solubility: NBPT [1]: 24.2 wt % | Active Ingredient Solubility: Bifenthrin [1]: 40.2 wt % | Active Ingredient Solubility: Dicamba Acid [1]: 49.1 wt % | Active Ingredient Solubility: Nitrapyrin [1]: 49.0 wt % | Active Ingredient Solubility: Tebuconazole [1]: 16.7 wt %

CC(=O)c1ccccc1 [Acetophenone]
Active Ingredient Solubility: Dicamba Acid [1]: 49.8 wt % | Active Ingredient Solubility: Nitrapyrin [1]: 55.4 wt % | Active Ingredient Solubility: 2,4-D Acid [2]: <30 wt % | Active Ingredient Solubility: MCPA [2]: <30 wt % | Active Ingredient Solubility: NBPT [2]: <30 wt % | Active Ingredient Solubility: Bifenthrin [2]: <50 wt % | Active Ingredient Solubility: Tebuconazole [2]: <30 wt %
